Measured values reported in patent US9222137B2, “Method for monitoring minimal residual hairy cell leukemia” (Trovagene, Inc., priority 2011, dated 2015).
Entries after “also recorded” stand apart in the source; their conditions may differ.

Columns and labels:
hairy cell leukemia = test: Case report: index HCL patient treated with pentostatin; format: in vivo, human
Text: Splenomegaly was present. […] At immunohistochemistry, leukemic cells were positive for CD20, DBA44, CD68 and Annexin-A1; expression of CD20, CD11c, CD25 and CD103 was documented by flow cytometry.

[1] = tested on: phosphorylated MEK and ERK in purified primary HCL cells (BRAF V600E); test: Western blot analysis of MEK and ERK phosphorylation in purified HCL cells incubated in vitro with BRAF inhibitor; format: cell-based, human; conditions: primary leukemic HCL cells; 250 nM, 500 nM or 1000 nM (≦1 μM); 2, 6 and 24 h incubation; vs vehicle (DMSO)
Experimental: Fresh leukemic cells purified from the peripheral blood of 5 patients with HCL were seeded in triplicate (2 to 3×10^5 cells/well, depending on the patient) in 96-well flat-bottom plates, and left recovering by overnight incubation at 37° C. and 5% CO2 in cell culture medium (RPMI1640 with 10% fetal bovine serum, glutamine and antibiotics). […] DMSO (the drug vehicle) was added in parallel wells as control. Cells were then harvested at different time points (2 h, 6 h and 24 h), washed 3 times in PBS, lysed in Laemmli sample buffer and boiled at 95° C. for 5 minutes. […] Protein lysates (6 to 7.5×10^4 fresh cell equivalent, depending on the patient; 2×10^5 frozen cell equivalent) were separated by SDS-polyacrylamide gel electrophoresis (SDS-PAGE) on pre-cast electrophoresis gels (12% Resolving gel cat. 456-1043 or Any kD Resolving Gel cat. 456-9036, Biorad), transferred to a 0.45 um pore size nitrocellulose transfer membrane (Whatman GmbH, Dassel, Germany), and probed with specific primary antibodies directly or after stripping (with Restore Western Blot Stripping Buffer, Pierce/Thermo Scientific cat. 21059). The anti-phospho-ERK1/2 (clone D13.14.4E; 1:2000 dilution), anti-phospho-MEK1/2 (clone 166F8; 1:1000 dilution), anti-ERK1/2 (clone 137F5; 1:1000 dilution) rabbit monoclonal antibodies and the anti-MEK1/2 (clone L38C12; 1:1000 dilution) mouse monoclonal antibody were all from Cell Signaling Technology. Upon incubation with horseradish peroxidase-conjugated secondary antibodies (GE Healthcare Lifesciences, Uppsala, Sweden), polypeptides were visualized using an enhanced chemiluminescence (ECL) western blot detection kit according to the manufacturer's instruction (GE Healthcare Lifesciences). Protein lysates (3×10^4 to 2×10^5 cell equivalent, depending on the experiment) from either serum-starved (45 min at 37° C. and 5% CO2 in RPMI1640) or unstarved human leukemic T-cell line Jurkat cells were used as negative and positive control, respectively, for ERK1/2 and MEK1/2 phosphorylation.
Membranes were probed with antibodies against phospho-ERK, phosphoMEK, total ERK and total MEK, as indicated on the far right. Protein lysates from either serum-starved or unstarved human leukemic Jurkat T cell line cells were used as negative (−) and positive (+) control, respectively, for ERK and MEK phosphorylation.

Structure (SMILES) | clinical outcome after therapy (hairy cell leukemia) | phosphorylation of ERK (phospho-ERK, Western blot) [1] | phosphorylation of MEK (phospho-MEK, Western blot) [1]
OC[C@H]1O[C@@H](n2cnc3c2NC=NC[C@H]3O)C[C@@H]1O [pentostatin] | complete hematological remission | – | –
CCCS(=O)(=O)Nc1ccc(F)c(C(=O)c2c[nH]c3ncc(Cl)cc23)c1F [PLX-4720] | – | dose-dependent dephosphorylation; also recorded: marked decrease | dose-dependent dephosphorylation; also recorded: marked decrease
